# Results taken from publication PMC6348446 (Journal of Medicinal Chemistry, 2018).
# Where “and” joins values, the source holds several entries; their conditions need not be identical. Equal entries are not always repeated.
# How the values were obtained:
# [1] = target: T1, VCB and BRD9-BD (ternary complex) (Homo sapiens, UniProt P40337+Q9H8M2); assay: ITC, VCB titrated into BRD9-BD:PROTAC binary complex (ternary); format: binding; conditions: 25 °C; for N (stoichiometry), VCB into BRD9-BD:PROTAC complex / ΔG, VCB into BRD9-BD:PROTAC complex / ΔH, VCB into BRD9-BD:PROTAC complex / –TΔS, VCB into BRD9-BD:PROTAC complex: ITC; for cooperativity α (ITC): binary versus ternary VCB binding
# T1 construct: the bromodomain (residues 134–239) for BRD9 (Q9H8M2); His6 (cleaved yes); made in house; host or cells: Escherichia coli BL21(DE3)
# T1 sequence (P40337 54-213 limits assumed): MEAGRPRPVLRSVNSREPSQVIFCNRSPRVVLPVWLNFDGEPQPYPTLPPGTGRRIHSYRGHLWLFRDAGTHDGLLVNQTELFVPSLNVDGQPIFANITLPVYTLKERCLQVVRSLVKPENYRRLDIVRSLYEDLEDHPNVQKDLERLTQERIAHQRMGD
# T1 sequence (Q15369 17-112 partner limits assumed): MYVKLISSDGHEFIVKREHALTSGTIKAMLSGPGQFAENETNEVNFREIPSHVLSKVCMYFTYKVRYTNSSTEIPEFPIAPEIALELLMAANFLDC
# T1 sequence (Q15370 1-104 partner limits assumed): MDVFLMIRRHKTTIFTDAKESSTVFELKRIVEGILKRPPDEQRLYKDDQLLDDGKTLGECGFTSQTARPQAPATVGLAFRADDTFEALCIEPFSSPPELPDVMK
# T1 sequence (Q9H8M2 134-239 limits assumed): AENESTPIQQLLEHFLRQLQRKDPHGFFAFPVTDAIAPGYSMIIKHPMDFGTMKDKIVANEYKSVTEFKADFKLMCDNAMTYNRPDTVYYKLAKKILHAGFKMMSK
# [2] = target: T2, VCB (VHL-ElonginC-ElonginB complex) (Homo sapiens, UniProt P40337); assay: ITC, VCB titrated into PROTAC alone (binary); format: binding; conditions: 25 °C
# T2 construct: His6 (cleaved yes); made in house; host or cells: Escherichia coli BL21(DE3)
# T2 sequence (P40337 54-213 limits assumed): as the sequence (P40337 54-213 limits assumed) above
# T2 sequence (Q15369 17-112 partner limits assumed): as the sequence (Q15369 17-112 partner limits assumed) above
# T2 sequence (Q15370 1-104 partner limits assumed): as the sequence (Q15370 1-104 partner limits assumed) above
# [3] = CHI LogD determination (reverse-phase HPLC); format: physicochemical; conditions: reversed-phase HPLC (ACE Excel 3 SuperC18 column), pH 7.4; read-out: CHI LogD (pH7.4)
# Method: removed from both acceptor and donor compartments and mixed with acetonitrile (80 µL) containing an internal standard. The samples were centrifuged (10 min, 5 °C, 3270 g) to sediment precipitated protein and sealed prior to UPLC-MS/MS analysis using a Xevo TQ-S Micro (Waters Corp, USA). Pe was calculated as shown in the below equation: […]
# CA(t) = peak area of compound present in acceptor well at time t = 18000 s Cequi = [CD(t) x VD + CA(t) x VA] / (VD + VA)
# VA = acceptor well volume
# CD(t) = peak area of compound present in donor well at time t = 18000 s Recovery of compound from donor and acceptor wells was calculated and data was only accepted when recovery exceeded 70%.
# Using a fast gradient, reverse-phase HPLC method to determine the chromatographic hydrophobicity index (CHI) was determined as described by Camurri and Zaramella (ref. 3) and Valko et al. (ref. 4). Briefly, by plotting the retention time of a set of reference […]
# compounds against known CHI values. The CHI value of test compounds was then calculated according to their retention time.
# Test compounds were prepared as 0.25 mM solutions in 50:50 acetonitrile:water and analysed by reversed-phase HPLC-UV (wavelength 254 nm) using a ACE Excel 3 SuperC18, 3 µm, 50 x 2.1 mm column with a gradient of aqueous phase (10 mM ammonium acetate, pH 7.4) and mobile phase (acetonitrile).
# Intrinsic clearance (Cli) experiments
# Test compound (0.5 µM) was incubated with female CD1 mouse or human (mixed gender) liver microsomes (Xenotech LLCTM; 0.5 mg/mL 50mM potassium phosphate buffer, pH7.4) and the reaction initiated with addition of excess NADPH (8 mg/mL 50 mM potassium phosphate buffer, pH7.4). Immediately, at time zero, then at 3, 6, 9, 15 and 30 minutes an aliquot (50 µL) of the incubation mixture was removed and mixed with acetonitrile (100 µL) to stop the reaction. Internal standard was added to all samples, the samples centrifuged to sediment precipitated protein and the plates then sealed prior to […] analysis using […]
# a Xevo TQ-S Micro (Waters corporation, USA).
# XLfit (IDBS, UK) was used to calculate the exponential decay and consequently the rate constant (k) from the ratio of peak area of test compound to internal standard at each timepoint. The rate of intrinsic clearance (CLi) of each test compound was then calculated using the following calculation:
# CLi(mL/min/g liver) = k x V x Microsomal protein yield
# Where V (mL/mg protein) is the incubation volume/mg protein added and microsomal protein yield is taken as 52.5 mg protein/ g liver. Verapamil (0.5 µM) was used as a positive control to confirm acceptable assay performance.
# [4] = Plasma stability, human; format: in vitro ADME; conditions: 10 µM compound, 37 °C; for half-life at 10 µM: human, plasma, pH 7.4, read-out: Plasma stability T 1/2, Human
# Method: (§1) Test compound (10 µM) was incubated in pre-warmed plasma at 37 ᵒC (that is buffered to pH 7.4 in ratio of 70:30 plasma to buffer). Immediately, at time zero, then at 30, 60, 120, and 180 min, a 50 µL aliquot of the incubation mixture was removed and mixed with 200 µL acetonitrile containing Donepezil as the internal standard (50 ng/ml) to stop the reaction. The samples were centrifuged to sediment the precipitated protein and the plates then sealed prior to UPLC-MS/MS analysis using a Xevo TQ-S Micro (Waters Corporation, USA).
# (§2) XLfit (IDBS, UK) was used to calculate the exponential decay and consequently the rate constant (k) from the ratio of peak area of test compound to internal standard at each time point. The half-life was calculated for each test compound from the rate by using the […]
# (§3) Parallel Artificial Membrane Permeability Assay (PAMPA)
# (§4) PAMPA was performed using a 96-well pre-coated BD Gentest™ PAMPA plate (BD Biosciences, U.K.). Each well was divided into two chambers; donor and acceptor, separated by a lipid-oil-lipid tri-layer constructed in a porous filter. The effective permeability, Pe, of the compound was measured at pH 7.4. Stock solutions (5 mM) of the compound were prepared in DMSO. The compound was then further diluted to 10 µM in phosphate buffered […]
# (§5) saline at pH 7.4. […] The compound […]
# (§6) dissolved in phosphate buffered saline was then added to the donor side of the membrane and phosphate buffered saline without compound was added to the acceptor side. The PAMPA plate was left at room temperature for 5 h. After which time, an aliquot (100 µL) was then
# [5] = Aqueous kinetic solubility by laser nephelometry; format: physicochemical; conditions: for solubility kinetic: MilliQ water with 2.5% DMSO
# Method: The aqueous solubility of the test compounds was measured using laser nephelometry.
# Compounds were subject to serial dilution from 10 mM to 0.5 mM in DMSO. An aliquot was then mixed with MilliQ water to obtain an aqueous dilution plate with a final concentration range of 250 – 12 µM, with a final DMSO concentration of 2.5%. Triplicate aliquots were transferred to a flat-bottomed polystyrene plate which was immediately read on the NEPHELOstar (BMG Lab Technologies). The amount of laser scatter caused by insoluble particulates (relative nephelometry units, RNU) was plotted against compound concentration using a segmental regression fit, with the point of inflection being quoted as the compounds
# [6] = Plasma stability, mouse; format: in vitro ADME; conditions: 10 µM compound, 37 °C; for half-life at 10 µM: mouse, plasma, pH 7.4, read-out: Plasma stability T 1/2, Mouse
# Method: as §1, §2, §3, §4, §5, §6
structure (smiles),measurement,setting,value
"COc1cc(-c2cn(C)c(=O)c3cnccc23)cc(OC)c1CN1CCN(CCOCCOCC(=O)N[C@H](C(=O)N2C[C@H](O)C[C@H]2C(=O)NCc2ccc(-c3scnc3C)cc2)C(C)(C)C)CC1 [Compound 5, (2S,4R)-1-((S)-2-(2-(2-(2-(4-(2,6-Dimethoxy-4-(2-methyl-1-oxo-1,2-dihydro-2,7-naphthyridin-4-yl)benzyl)piperazin-1-yl)ethoxy)ethoxy)acetamido)-3,3-dimethylbutanoyl)-4-hydroxy-N-(4-(4-methylthiazol-5-yl)benzyl)pyrrolidine-2-carboxamide]","N (stoichiometry), VCB into BRD9-BD:PROTAC complex",[1],0.75 ± 0.05
same,"ΔG, VCB into BRD9-BD:PROTAC complex",[1],–9.7 ± 0.1 kcal/mol
same,"ΔH, VCB into BRD9-BD:PROTAC complex",[1],–6.4 ± 0.1 kcal/mol
same,"–TΔS, VCB into BRD9-BD:PROTAC complex",[1],–3.3 ± 0.1 kcal/mol
same,"N (stoichiometry), VCB into PROTAC alone",[2],0.60 ± 0.01
same,"ΔG, VCB into PROTAC alone",[2],–10.2 ± 0.1 kcal/mol
same,"ΔH, VCB into PROTAC alone",[2],–15.2 ± 0.1 kcal/mol
"COc1cc(-c2cn(C)c(=O)c3cnccc23)cc(OC)c1CN1CCN(CCOCCOCCOc2cc(-c3scnc3C)ccc2CNC(=O)[C@@H]2C[C@@H](O)CN2C(=O)[C@@H](NC(=O)C2(F)CC2)C(C)(C)C)CC1 [Compound 26, (2S,4R)-N-(2-(2-(2-(2-(4-(2,6-Dimethoxy-4-(2-methyl-1-oxo-1,2-dihydro-2,7-naphthyridin-4-yl)benzyl)piperazin-1-yl)ethoxy)ethoxy)ethoxy)-4-(4-methylthiazol-5-yl)benzyl)-1-((S)-2-(1-fluorocyclopropane-1-carboxamido)-3,3-dimethylbutanoyl)-4-hydroxypyrrolidine-2-carboxamide]","N (stoichiometry), VCB into BRD9-BD:PROTAC complex",[1],0.99
same,"ΔG, VCB into BRD9-BD:PROTAC complex",[1],–9.7 ± 0.2 kcal/mol
same,"ΔH, VCB into BRD9-BD:PROTAC complex",[1],–6.4 ± 0.2 kcal/mol
same,"–TΔS, VCB into BRD9-BD:PROTAC complex",[1],–3.3 ± 0.2 kcal/mol
same,cooperativity α (ITC),[1],1 and 1.05
same,chromatographic logD,[3],2
same,"N (stoichiometry), VCB into PROTAC alone",[2],0.99
same,"ΔG, VCB into PROTAC alone",[2],–9.64 ± 0.03 kcal/mol
same,"ΔH, VCB into PROTAC alone",[2],–6.56 ± 0.09 kcal/mol
same,"–TΔS, VCB into PROTAC alone",[2],–3.1 ± 0.1 kcal/mol
"COc1cc(-c2cn(C)c(=O)c3cnccc23)cc(OC)c1CN1CCN(CCCCCOc2cc(-c3scnc3C)ccc2CNC(=O)[C@@H]2C[C@@H](O)CN2C(=O)[C@@H](NC(=O)C2(F)CC2)C(C)(C)C)CC1 [Compound 51, (2S,4R)-N-(2-((5-(4-(2,6-Dimethoxy-4-(2-methyl-1-oxo-1,2-dihydro-2,7-naphthyridin-4-yl)benzyl)piperazin-1-yl)pentyl)oxy)-4-(4-methylthiazol-5-yl)benzyl)-1-((S)-2-(1-fluorocyclopropane-1-carboxamido)-3,3-dimethylbutanoyl)-4-hydroxypyrrolidine-2-carboxamide]","Plasma stability T 1/2, Human",[4],high stabilities
same,half-life at 10 µM,[4],> 3 h
same,Aqueous Solubility (Kinetic),"[5]; 2.5% DMSO, listed as VZ185",~100 µM
same,solubility kinetic,[5],85 µM
same,"N (stoichiometry), VCB into BRD9-BD:PROTAC complex",[1],0.73
same,"ΔG, VCB into BRD9-BD:PROTAC complex",[1],–10.33 ± 0.08 kcal/mol
same,"ΔH, VCB into BRD9-BD:PROTAC complex",[1],–5.1 ± 0.1 kcal/mol
same,"–TΔS, VCB into BRD9-BD:PROTAC complex",[1],–5.3 ± 0.1 kcal/mol
same,cooperativity α (ITC),[1]; listed as VZ185,0.97 and 0.96
same,chromatographic logD,[3],2.3
same,"Plasma stability T 1/2, Mouse",[6],high stabilities
same,half-life at 10 µM,[6],> 3 h
same,"N (stoichiometry), VCB into PROTAC alone",[2],0.73
same,"ΔG, VCB into PROTAC alone",[2],–10.4 ± 0.2 kcal/mol
same,"ΔH, VCB into PROTAC alone",[2],–7.04 ± 0.08 kcal/mol
same,"–TΔS, VCB into PROTAC alone",[2],–3.4 ± 0.1 kcal/mol
COc1cc(-c2cn(C)c(=O)c3cnccc23)cc(OC)c1CN1CCN(CCCCCOc2cc(-c3scnc3C)ccc2CNC(=O)[C@@H]2C[C@H](O)CN2C(=O)[C@@H](NC(=O)C2(F)CC2)C(C)(C)C)CC1 [cisVZ185],half-life at 10 µM,[4],> 3 h
same,solubility kinetic,[5],79 µM
same,chromatographic logD,[3],2.4
same,half-life at 10 µM,[6],> 3 h
